Test results published in US20100267731A1, “USE OF TRANSFORMING GROWTH FACTOR-B RECEPTOR INHIBITORS TO SUPPRESS OCULAR SCARRING” (Summa Health Systems, LLC, priority 2009, published 2010).

Experiments:
[1] = tested on: New Zealand white rabbits; test: Post surgery IOP in vivo; parameters: species or system New Zealand white rabbit; settings: rabbit GFS, versus untreated eye
Description: IOP for the animals in groups A-D was measured with a TONO-PEN AVIA® (Reichert Ophthalmic Instruments, Depew, N.Y.) by gently touching the cornea of each subject after topical anesthesia was applied with 0.5% proparacaine. The IOP reading was omitted if its confidence interval was less than 95%. An average of three measurements was taken to deduce IOP.

[2] = tested on: subconjunctival tissue fibroblast outgrowth; test: Subconjunctival tissue fibroblast outgrowth assay ex vivo; assay type: cell-based, New Zealand white rabbit; settings: for cell outgrowth length, explant from 180° control: 180° from the surgical site (180° control)
Description: Under an ophthalmic surgical microscope, subconjunctival tissues were dissected from the surgical site and 180 (6-o'clock position) from the surgical site (the 180° control). Each biopsy specimen (explant) was placed in a 25 cm^2 cell culture flask with complete media. […] The cell outgrowth, in mm, from the edge of each explant was observed, and the length of the outgrowth in 4 quadrants was measured.

[3] = tested on: New Zealand white rabbits; test: Hematoxylin and eosin staining ex vivo of eyes after GFS; assay type: in vivo; settings: for infiltration of inflammatory cells and scarring in the subconjunctival space: H&E, five days after surgery
Description: Five days after surgery, the subjects in Groups A-D were euthanized with Fatal-plus™ (Vortech Pharmaceutical, Dearborn, Mich.) following the manufacturer's instructions. The subject's eyes were enucleated with palpebral margins to keep the conjunctiva epithelium and the subconjunctival space intact. Enucleated eyes were fixed with 10% buffered formalin and 5 μm thick paraffin sections were prepared. The sections were stained with hematoxylin and eosin (H&E) for histological examination, and images were captured using an Olympus DX51 light microscope and DP controller (Olympus, Tokyo, Japan).

[4] = tested on: cultured rabbit subconjunctival fibroblasts; test: Toxicity of ALK-5 inhibitors in vitro (cell count by hemocytometer); assay type: cell-based, New Zealand white rabbit; settings: 10.0 of inhibitor pre-treated one hour, then 2 ng/ml TGF-β2 up to 48 hours
Description: Sample fibroblasts were obtained from New Zealand white rabbit eyes. The fibroblasts were derived from the subconjunctival tissues isolated from the eyes of the subjects. The cells were maintained in 25 cm^2 flask using 2 ml of medium composed of Eagle's minimal essential medium, 10% fetal bovine serum, 5% calf serum, essential and nonessential aminoacids, and antibiotics. When the cells reached confluence, they were trypsinized and passaged.
Three samples of the fibroblasts were prepared. The first sample, sample A, included fibroblast cultures treated with 2 ng/ml of TGF-β2 for up to 48 hours. The second sample, sample B, included fibroblast cultures that were untreated. The third sample included fibroblast cultures pre-treated with 2 ml of a medium including […] of ALK-5 inhibitor SB-505124 for one hour, and were additionally treated with additional 2 ng/ml of TGF-β2 (R&D Systems, Minneapolis, Minn.) for up to 48 hours.
The number of cells were counted using a hemocytometer (Hausser Scientific, Horsham, PC) after trypsinization. […] Therefore, in addition to inhibiting the expression of TGF-β2 and mitigating the ocular scarring that may result after GFS by using an ALK-5 type inhibitor, the ALK-5 inhibitor appears to have the added benefit of not destroying healthy cells around the surgical site that prevent post-surgery infection.

[5] = explants taken five days after GFS

Row | Compound | period IOP of treated eyes was lowered after GFS (in words) ([1]; MMC control) | cell outgrowth length, explant from 180° control ([2]; over 18 days) | infiltration of inflammatory cells and scarring in the subconjunctival space [3] | cell number versus samples untreated or treated with TGF-β2 alone [4] | time IOP of treated eyes was lowered after GFS ([1]; SB-505124 tablet) | cell outgrowth from the edge of the subconjunctival tissue explant (qualitative) [2, 5] | difference in cell outgrowth versus untreated group [2, 5] | cell outgrowth length, explant from surgical site ([2]; surgical site, over 18 days) | signs of tissue toxicity ([3]; rabbit, in vivo) | subconjunctival blood vessels ([3]; rabbit, in vivo)
1 | CO[C@@]12[C@H](COC(N)=O)C3=C(C(=O)C(C)=C(N)C3=O)N1C[C@@H]1N[C@@H]12 [MMC, mitomycin C] | throughout the observation period | approximately 7 mm | only a few inflammatory cells and mild scarring |  |  |  |  |  |  | 
2 | Cc1cccc(-c2[nH]c(C(C)(C)C)nc2-c2ccc3c(c2)OCO3)n1 [SB-505124] |  | approximately 7 mm | only a few inflammatory cells and mild scarring | no measurable difference in cell number | up to 10 days | robust | no significant difference | approximately 7 mm | no or very low signs of tissue toxicity | seen
